From patent US9926281B2 (priority 2014, dated 2018)

Assays:
human ADAMTS-5 = human ADAMTS-5 (Homo sapiens (Human), UniProt Q9UNA0); conditions: read-out: hADAMTS-5 potency IC50
Description: Finally, the fluorescence is read on the Envision (Perkin Elmer) after an incubation of 90 min at 37° C.

human TACE = human TACE (Homo sapiens (Human), UniProt P78536); conditions: read-out: TACE potency IC50
Sequence of human TACE (P78536 whole entry, looked up, change not shown): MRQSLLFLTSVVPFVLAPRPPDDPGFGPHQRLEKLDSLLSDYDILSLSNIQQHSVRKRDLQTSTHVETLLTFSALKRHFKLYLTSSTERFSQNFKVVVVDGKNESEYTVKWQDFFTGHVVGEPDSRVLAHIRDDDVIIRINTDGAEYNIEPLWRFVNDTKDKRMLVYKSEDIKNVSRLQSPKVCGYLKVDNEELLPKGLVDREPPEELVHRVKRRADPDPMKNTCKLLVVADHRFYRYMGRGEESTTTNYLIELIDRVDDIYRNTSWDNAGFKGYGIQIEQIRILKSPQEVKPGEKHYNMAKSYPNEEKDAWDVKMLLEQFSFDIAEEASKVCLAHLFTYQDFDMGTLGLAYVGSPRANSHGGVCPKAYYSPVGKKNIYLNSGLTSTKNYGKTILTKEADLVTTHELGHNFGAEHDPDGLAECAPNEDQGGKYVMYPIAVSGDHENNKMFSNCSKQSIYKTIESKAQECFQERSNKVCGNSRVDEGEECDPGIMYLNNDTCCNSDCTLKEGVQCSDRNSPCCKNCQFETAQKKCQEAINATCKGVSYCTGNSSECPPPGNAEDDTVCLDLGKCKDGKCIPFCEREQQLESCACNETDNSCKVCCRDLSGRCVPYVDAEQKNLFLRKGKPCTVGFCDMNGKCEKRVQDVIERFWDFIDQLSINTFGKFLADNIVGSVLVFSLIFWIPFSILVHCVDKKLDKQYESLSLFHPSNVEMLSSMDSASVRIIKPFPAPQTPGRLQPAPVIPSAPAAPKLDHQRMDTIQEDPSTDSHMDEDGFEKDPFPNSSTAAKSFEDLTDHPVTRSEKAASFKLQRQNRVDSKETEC

Sequence of human ADAMTS-5 (Q9UNA0 262-930): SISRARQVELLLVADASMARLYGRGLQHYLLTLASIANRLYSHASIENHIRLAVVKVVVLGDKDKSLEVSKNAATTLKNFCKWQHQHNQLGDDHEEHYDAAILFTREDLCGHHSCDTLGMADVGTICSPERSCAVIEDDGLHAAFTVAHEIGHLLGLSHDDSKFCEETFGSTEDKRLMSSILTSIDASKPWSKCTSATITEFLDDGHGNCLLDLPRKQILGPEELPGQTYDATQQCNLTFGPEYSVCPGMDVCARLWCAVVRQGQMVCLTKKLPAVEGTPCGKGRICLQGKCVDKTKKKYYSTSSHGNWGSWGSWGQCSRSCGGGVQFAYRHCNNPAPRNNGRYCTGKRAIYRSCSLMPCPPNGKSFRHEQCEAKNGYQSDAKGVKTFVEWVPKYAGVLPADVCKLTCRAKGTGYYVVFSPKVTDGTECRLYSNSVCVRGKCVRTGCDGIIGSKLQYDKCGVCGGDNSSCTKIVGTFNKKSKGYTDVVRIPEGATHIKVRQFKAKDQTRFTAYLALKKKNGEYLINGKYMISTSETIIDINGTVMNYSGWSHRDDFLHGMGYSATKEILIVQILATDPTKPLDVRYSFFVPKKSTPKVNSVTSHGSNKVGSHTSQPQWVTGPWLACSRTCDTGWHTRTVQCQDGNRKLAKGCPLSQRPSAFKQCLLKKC

Structure (SMILES) | IC50 (human ADAMTS-5) | IC50 (human TACE)
C[C@H]1CN(C(=O)CCC2(C3CC3)NC(=O)NC2=O)CCN1c1ccc(F)cc1 (stereo partly drawn) [compound 300, 5-cyclopropyl-5-[3-[(3S)-4-(4-fluorophenyl)-3-methyl-piperazin-1-yl]-3-oxo-propyl]imidazolidine-2,4-dione] | 140 nM | > 20 µM
C[C@H]1CN(C(=O)CCC2(c3ccccn3)NC(=O)NC2=O)CCN1c1cc(F)cc(F)c1 (stereo partly drawn) [compound 348, 5-[3-[(3S)-4-(3,5-difluorophenyl)-3-methyl-piperazin-1-yl]-3-oxo-propyl]-5-(2-pyridyl)imidazolidine-2,4-dione] | 34 nM | > 4 µM
Cc1cccc(C2(CCC(=O)N3CCN(c4ccc(F)c(Cl)c4)[C@@H](C)C3)NC(=O)NC2=O)n1 (stereo partly drawn) [compound 447, 5-[3-[(3S)-4-(3-chloro-4-fluoro-phenyl)-3-methyl-piperazin-1-yl]-3-oxo-propyl]-5-(6-methyl-2-pyridyl)imidazolidine-2,4-dione] | 56 nM | 3.62 µM
CC(CC1(c2ccccn2)NC(=O)NC1=O)C(=O)N1CCN(c2cccc(F)c2)[C@@H](C)C1 (stereo partly drawn) [compound 263, 5-[3-[(3S)-4-(3-fluorophenyl)-3-methyl-piperazin-1-yl]-2-methyl-3-oxo-propyl]-5-(2-pyridyl)imidazolidine-2,4-dione] | 19 nM | 2.62 µM
Cc1cccc(C2(CCC(=O)N3CCN(c4cccc(Cl)c4)[C@@H](C)C3)NC(=O)NC2=O)n1 (stereo partly drawn) [compound 311, 5-[3-[(3S)-4-(3-chlorophenyl)-3-methyl-piperazin-1-yl]-3-oxo-propyl]-5-(6-methyl-2-pyridyl)imidazolidine-2,4-dione] | 57 nM | 3.07 µM
Cc1cncc(N2CCN(C(=O)CCC3(C4CC4)NC(=O)NC3=O)C[C@@H]2C)c1 (stereo partly drawn) [compound 303, 5-cyclopropyl-5-[3-[(3S)-3-methyl-4-(5-methyl-3-pyridyl)piperazin-1-yl]-3-oxo-propyl]imidazolidine-2,4-dione] | 266 nM | > 20 µM
CC(CC1(C2CC2)NC(=O)NC1=O)C(=O)N1CCN(c2ccc(F)cc2)[C@@H](C)C1 (stereo partly drawn) [compound 343, 5-cyclopropyl-5-[3-[(3S)-4-(4-fluorophenyl)-3-methyl-piperazin-1-yl]-2-methyl-3-oxo-propyl]imidazolidine-2,4-dione] | 22 nM | > 20 µM
COC(CC1(C)NC(=O)NC1=O)C(=O)N1CCN(c2ccc(F)c(Cl)c2)[C@@H](C)C1 (stereo partly drawn) [compound 450, 5-(3-((S)-4-(3-chloro-4-fluorophenyl)-3-methylpiperazin-1-yl)-2-methoxy-3-oxopropyl)-5-methylimidazolidine-2,4-dione] | 58 nM | > 20 µM
CC(CC1(c2ccccn2)NC(=O)NC1=O)C(=O)N1CCN(c2cccc(Cl)c2)[C@@H](C)C1 (stereo partly drawn) [compound 446, 5-(3-((S)-4-(3-chlorophenyl)-3-methylpiperazin-1-yl)-2-methyl-3-oxopropyl)-5-(pyridin-2-yl)imidazolidine-2,4-dione] | 19 nM | 0.84 µM
Cc1cc(CC(CC2(C)NC(=O)NC2=O)C(=O)N2CCN(c3cc(Cl)cc(Cl)c3)CC2)n(C)n1 (stereo not drawn) [compound 238, 5-[3-[4-(3,5-dichlorophenyl)piperazin-1-yl]-2-[(2,5-dimethylpyrazol-3-yl)methyl]-3-oxo-propyl]-5-methyl-imidazolidine-2,4-dione] | 141 nM | 3.16 µM
C[C@H]1CN(C(=O)CCC2(C3CC3)NC(=O)NC2=O)CCN1c1ccc2[nH]ccc2c1 (stereo partly drawn) [compound 274, 5-cyclopropyl-5-[3-[(3S)-4-(1H-indol-5-yl)-3-methyl-piperazin-1-yl]-3-oxo-propyl]imidazolidine-2,4-dione] | > 4000 nM | > 20 µM
C[C@H]1CN(C(=O)CCC2(c3cnccn3)NC(=O)NC2=O)CCN1c1ccc(Cl)c(Cl)c1 (stereo partly drawn) [compound 460, 5-[3-[(3S)-4-(3,4-dichlorophenyl)-3-methyl-piperazin-1-yl]-3-oxo-propyl]-5-pyrazin-2-yl-imidazolidine-2,4-dione] | 30 nM | > 4 µM
